Reference: patent US20190241943A1, “RAPID PHENOTYPING AND IDENTIFICATION OF MICROBES FROM A COMPLEX MICROBIAL COMMUNITY” (Duke University, priority 2018, published 2019)

How the values were obtained:
gut bacteria = assay: Xenobiotic growth screen of gut bacteria for beta-glucuronidases in droplets; type: cell-based, human gut bacteria; conditions: defined media, glucose positive control, water negative control (FIG. 6)
Source text: Thus, in certain aspects of this disclosure, the methods of the invention can be used to identify or screen bacteria from the gut that can utilize, and thus inactivate, specific xenobiotic compounds. In certain embodiments of this aspect, the methods of the invention can be used to screen gut bacteria for beta-glucuronidases, which are present in bacteria that can inactivate certain man-made therapeutics. […] (FIG. 6). […] Thus, in some embodiments, the present disclosure provides for identification of bacterial taxa that contain putative beta-glucuronidases. Using the method disclosed herein, bacteria are isolated by encapsulation in droplets of defined media with or without a specific xenobiotic. DNA is sampled from the encapsulated droplets at one or more set time points during incubation, and absolute growth is then computed as previously disclosed herein. […] To determine gut bacterial strain response to xenobiotics, gut bacteria were screened for beta-glucuronidases, which are present in bacteria that can inactivate certain man-made therapeutics. […] (FIG. 6). […] Thus, the assay identified bacterial taxa that contain putative beta-glucuronidases. Glucose and water are positive and negative controls, respectively. (FIG. 6).

[1] = tested on: B. thetaiotamicron (ATCC strain 29148); assay: Droplet monoculture growth on different carbon sources in defined medium (MicDrop); type: cell-based, Bacteroides thetaiotaomicron; conditions: for growth of the isolate in droplets compared to control defined medium without carbon source: B. theta isolate, defined medium with a single carbon source, endpoint DNA quantity (FIG. 4); for growth in droplets on carbohydrate (growth / no growth): B. thetaiotaomicron ATCC 29148 in microfluidic droplets, consistent with 96-well plates (FIG. 4)
Method: By using a defined media, a function of individual bacteria (in this case growth on a substrate of interest) can be determined. Bacteria were isolated from a fecal community of a healthy donor and cultured in defined medium. To identify carbon sources on which an individual isolated bacterium can grow, carbon sources of varying complexity were added individually to the defined media. Growth was measured at the endpoint, and the DNA was extracted, sequenced and quantified by qPCR as provided in Example 2. In this assay, the endpoint growth of an individual bacteria cultured in a defined medium with the addition of one carbon source was compared to the end point growth measurement of the same bacteria in the defined medium with only the addition of water. (FIG. 4). This comparison enables assessing the ability of an individual microbe to use a single carbon source for growth. As an example in FIG. 4, an isolate of the bacterial strain B. thetaiotamicron (ATCC® strain 29148) was cultured in droplets with defined medium containing the carbon source Pullalan, Levan, Lamanarin or no carbon source (control), and growth was compared. (FIG. 4). […] (FIG. 4). […] (FIG. 5).
(A) Microbial communities isolated from human stool samples were examined for carbon consumption in a custom microfluidic screen. Cells were restarted from frozen stock in mGAM (as above) and then minimal medium containing glucose and galactose (SIGMA®) as the sole carbon sources. Following determination of the loading concentration, the cell culture stocks were washed twice by centrifugation and resuspended in 2× minimal medium. Cells were filtered using a 50 μm filter (CELLTRICS®, SYSMEX®) to remove multi-cell clumps. The filtered cells suspension was then added to each sample formulation at the target concentration. Each sample was a 50:50 mixture of 1% carbon solution and 2× minimal medium. To prevent chip fouling, the oil inlet was equipped with 10 μm inline filters (P-276, IDEX®). Droplet generation in the anaerobic chamber was monitored using a bright field microscope (44347, CELESTRON®). Droplet cultures were stored 5 mL polypropylene tubes (352063, FALCON®) with the caps closed in an anaerobic incubator at 37° C. Following the second day of incubation, cultures were moved to a −20° C. freezer for storage prior to DNA extraction. Pre-processing of the droplet data designated samples with qPCR values below the mean no-carbon control as zero growth. Then, relative abundance data was converted to absolute abundance by multiplying each sample by the corresponding qPCR value. The median was then calculated across three replicate samples and matched no-carbon controls were subtracted from each sample. Finally, a growth threshold of 88% of maximum growth was applied, as determined from validation analysis (FIG. 15, Validation of prebiotic utilization assays)
To test whether the MicDrop method could be used to assay bacterial prebiotic metabolism (FIG. 12A), a previously characterized type strain Bacteroides thetaiotaomicron ATCC 29148 was loaded into microfluidic droplets and standard 96-well plates. Consistent with both prior studies and well-plate experiments disclosed herein, B. thetaiotaomicron ATCC 29148 grew in droplets on pullulan and levan, but not on lamanarin or a no carbohydrate control (FIG. 4). […] Using 96-well plate experiments as a reference (FIG. 12B, FIG. 18), the accuracy of the MicDrop prebiotic assay was determined to be 87% (Table 8). […]

| Compound | bacterial growth on substrate (gut bacteria) | growth of the isolate in droplets compared to control defined medium without carbon source [1] | growth in droplets on carbohydrate (growth / no growth) [1] |
| --- | --- | --- | --- |
| O=C(O)[C@H]1O[C@@H](Oc2ccc([N+](=O)[O-])cc2)[C@H](O)[C@@H](O)[C@@H]1O [PNPG, 4-Nitrophenyl-Beta-D-glucuronic acid, reference compound] | bacterial growth |  |  |
| O=C[C@H](O)[C@@H](O)[C@H](O)[C@H](O)C(=O)O [glucuronic acid] | bacterial growth |  |  |
| lamanarin |  | the same or slightly worse |  |
| levan |  | greater growth | grew |
| pullulan [Pullalan] |  | greater growth | grew |
